Counter-ions that a name gives are not always drawn.

One experiment concerns T1, 1N4R p-tau.
T1 construct: made in house; host or cells: E. coli (PIMAX system)
Description: p-tau aggregation modulator screen of 1280-compound library (ThS fluorescence net change over 16 h). Format: biochemical. The arrangement: key to PTAI>2SD: *: PTAI>2SD.
Conditions: not given
In the case of `COc1cccc2c1C(=O)c1c(O)c3c(c(O)c1C2=O)C[C@@](O)(C(=O)CO)C[C@@H]3O[C@H]1C[C@H](N)[C@H](O)[C@H](C)O1` [Doxorubicin hydrochloride], the ThS net change is 249.

Compound `CC[C@]12CCCN3CCc4c(n(c5ccccc45)C(=O)C1)[C@@H]32` [Eburnamonine (-)] had a ThS net change of 379.

Compound `Clc1ccc(COC(Cn2ccnc2)c2ccc(Cl)cc2Cl)cc1` (stereo not shown) [Econazole nitrate] displayed a ThS net change of 309.

`C[C@H](N[C@@H](CCc1ccccc1)C(=O)O)C(=O)N1CCC[C@H]1C(=O)O.O.O` [Enalaprilat dihydrate] displayed a ThS net change of 438.

In turn, `C[C@]12CC[C@H](O)C[C@@H]1CC[C@@H]1[C@@H]2CC[C@]2(C)C(=O)CC[C@@H]12` [Epiandrosterone] displayed a ThS net change of 440.

`COc1cccc2c1C(=O)c1c(O)c3c(c(O)c1C2=O)C[C@@](O)(C(=O)CO)C[C@@H]3O[C@H]1C[C@H](N)[C@@H](O)[C@H](C)O1` [Epirubicin hydrochloride] returned a ThS net change of 315.

With `C[C@]12C[C@H]3S[C@H]3C[C@@H]1CC[C@@H]1[C@@H]2CC[C@]2(C)[C@@H](O)CC[C@@H]12` [Epitiostanol], the ThS net change is reported as 421.

In the case of `C#C[C@]1(O)CC[C@H]2[C@@H]3CCC4=CC(=O)CC[C@]4(C)[C@H]3CC[C@@]21C` [Ethisterone], the ThS net change is listed as 490.

`CCOC(=O)c1cncn1[C@H](C)c1ccccc1` [Etomidate]: the ThS net change was determined as 447.

Still in this experiment, the particulars now being: 30 µM compound, 6 µM p-tau, 16 h.
Consider `NCCc1ccc(O)c(O)c1` [Dopamine, reference compound], for which the “effect on p-tau aggregation in pilot screen” value was “none of them affected p-tau aggregation”.

The experiment is the same for the next values; noted with them: 1280-compound library screen; ThS fluorescence net change over 16 h.
The compound `O=c1[nH]c2ccccc2n1CCCN1CCC(n2c(=O)[nH]c3cc(Cl)ccc32)CC1` [Domperidone] had a ThS net change of 392.

On to `NCCc1ccc(O)c(O)c1` [Dopamine hydrochloride], for which the ThS net change was found to be 404.

Turning to `CCN(CC)CCOC(=O)C(c1ccccc1)C1CCCCC1` (stereo not shown) [Drofenine hydrochloride], the ThS net change was 388.

Turning to `O=C(CCCN1CC=C(n2c(=O)[nH]c3ccccc32)CC1)c1ccc(F)cc1` [Droperidol], the ThS net change worked out at 412.

`CCCCOc1ccc(C(=O)CCN2CCCCC2)cc1` [Dyclonine hydrochloride] returned a ThS net change of 406.

Regarding `CC[N+](C)(C)c1cccc(O)c1` [Edrophonium chloride], the ThS net change stood at 389.

Regarding `CCOCCn1c(N2CCCN(C)CC2)nc2ccccc21` [Emedastine], the ThS net change is 387.

On to `COc1cc(C)nc(-n2nc(C)cc2OC)n1` [Epirizole], for which the ThS net change amounted to 389.

The compound `C#Cc1cccc(Nc2ncnc3cc(OCCOC)c(OCCOC)cc23)c1` [Erlotinib] showed a ThS net change of 387.

With `COC(=O)CCc1ccc(OCC(O)CNC(C)C)cc1` (stereo not shown) [Esmolol hydrochloride], the ThS net change was determined as 400.

`C[C@]12CC[C@@H]3c4ccc(O)cc4CC[C@H]3[C@@H]1CC[C@@H]2O` [Estradiol-17 beta]: the ThS net change is 384.

The compound `C=C(CC)C(=O)c1ccc(OCC(=O)O)c(Cl)c1Cl` [Ethacrynic acid] yielded a ThS net change of 412.

Compound `CCN(CC)C(=O)c1ccc(O)c(OC)c1` [Ethamivan] had a ThS net change of 386.

For `CCN1C(=O)NC(c2ccccc2)C1=O` (stereo not shown) [Ethotoin], the ThS net change stood at 394.

For `C#C[C@]1(O)CC[C@H]2[C@@H]3CCc4cc(OC)ccc4[C@H]3CC[C@@]21C` [Ethynylestradiol 3-methyl ether], the ThS net change is 406.

In the case of `CCNCC(O)c1cccc(O)c1` (stereo not shown) [Etilefrine hydrochloride], the ThS net change is on record as 407.

Still in this experiment, the particulars now being: 1280-compound library screen; […].
Consider `C[C@]12CC[C@H]3C(=CCc4cc(O)ccc43)[C@@H]1CCC2=O` [Equilin], for which the ThS net change amounted to 389.

For the compound `CNC(=O)Oc1ccc2c(c1)[C@]1(C)CCN(C)[C@@H]1N2C` [Eserine hemisulfate salt], the ThS net change turned out to be 395.

On to `C[C@]12CC[C@@H]3c4ccc(OC(=O)N(CCCl)CCCl)cc4CC[C@H]3[C@@H]1CC[C@@H]2O` [Estramustine], for which the ThS net change was 407.

In turn, `CC(O)(P(=O)([O-])O)P(=O)([O-])O.[Na+].[Na+]` [Etidronic acid, disodium salt] yielded a ThS net change of 392.

Still in this experiment, the particulars now being: flag: p-tau aggregation inhibitor, ThS net change more than 2 SD from mean.
Turning to `C[C@H]1c2cccc(O)c2C(=O)C2=C(O)[C@]3(O)C(=O)C(C(N)=O)=C(O)[C@@H](N(C)C)[C@@H]3[C@@H](O)[C@@H]21` [Doxycycline hydrochloride], the “PTAI>2SD” value is on record as “*”.

The experiment is the same for the next values; noted with them: library screen, ThS fluorescence net change over 16 h with p-tau.
Consider `CN(C)CC/C=C1\c2ccccc2CSc2ccccc21` [Dosulepin hydrochloride], for which the ThS net change is given as 311.

Turning to `COc1cc2nc(N3CCN(C(=O)C4COc5ccccc5O4)CC3)nc(N)c2cc1OC` (stereo not shown) [Doxazosin mesylate], the ThS net change is reported as 310.

On to `C[C@H]1c2cccc(O)c2C(=O)C2=C(O)[C@]3(O)C(=O)C(C(N)=O)=C(O)[C@@H](N(C)C)[C@@H]3[C@@H](O)[C@@H]21` [Doxycycline hydrochloride], for which the ThS net change stood at 174.

In turn, `CCN(CC)C(=O)/C(C#N)=C/c1cc(O)c(O)c([N+](=O)[O-])c1` [Entacapone] returned a ThS net change of 199.

In turn, `CC[C@H]1OC(=O)[C@H](C)[C@@H](O[C@H]2C[C@@](C)(OC)[C@@H](O)[C@H](C)O2)[C@H](C)[C@@H](O[C@@H]2O[C@H](C)C[C@H](N(C)C)[C@H]2O)[C@](C)(O)C[C@@H](C)C(=O)[C@H](C)[C@@H](O)[C@]1(C)O` [Erythromycin] showed a ThS net change of 314.

Still in this experiment, the particulars now being: p-tau aggregation modulator screen of 1280-compound library; ThS fluorescence net change.
Turning to `CN(C)CCC=C1c2ccccc2COc2ccccc21` [Doxepin hydrochloride], the ThS net change worked out at 341.

`CN(C)CCOC(C)(c1ccccc1)c1ccccn1` (stereo not shown) [Doxylamine succinate] returned a ThS net change of 367.

As to `CC(=O)[C@H]1CC[C@H]2[C@@H]3C=CC4=CC(=O)CC[C@@]4(C)[C@@H]3CC[C@]12C` [Dydrogesterone], the ThS net change was determined as 371.

Compound `O=c1c2ccccc2[se]n1-c1ccccc1` [Ebselen] gave a ThS net change of 348.

Take `CCn1cc(C(=O)O)c(=O)c2cc(F)c(N3CCNCC3)nc21` [Enoxacin]: the ThS net change was 378.

In the case of `CCN1CCN(c2cc3c(cc2F)c(=O)c(C(=O)O)cn3C2CC2)CC1` [Enrofloxacin], the ThS net change is listed as 364.

Compound `CN(C)CCC[C@@]1(c2ccc(F)cc2)OCc2cc(C#N)ccc21` [Escitalopram oxalate] registered a ThS net change of 374.

On to `C[C@]12CC[C@@H]3c4ccc(O)cc4CC[C@H]3[C@@H]1CCC2=O` [Estrone], for which the ThS net change is given as 344.

`C[C@]12CC[C@@H]3c4ccc(OS(=O)(=O)O)cc4CC[C@H]3[C@@H]1CCC2=O` [Estropipate] yielded a ThS net change of 359.

In turn, `CC[C@@H](CO)NCCN[C@@H](CC)CO` [Ethambutol dihydrochloride] registered a ThS net change of 344.

`CCc1cc(C(N)=S)ccn1` [Ethionamide] displayed a ThS net change of 360.

`CCN(CC)C(C)CN1c2ccccc2Sc2ccccc21` (stereo not shown) [Ethopropazine hydrochloride] yielded a ThS net change of 336.

In turn, `C#C[C@]1(OC(C)=O)CC[C@H]2[C@@H]3CCC4=C[C@@H](OC(C)=O)CC[C@@H]4[C@H]3CC[C@@]21C` [Ethynodiol diacetate] showed a ThS net change of 355.

The same experiment, now with this note: p-tau aggregation modulator screen of 1280-compound library; […].
`CS(=O)(=O)O.O.O=C(O[C@@H]1C[C@@H]2C[C@@H]3C[C@H](C1)N2CC3=O)c1c[nH]c2ccccc12` [Dolasetron mesilate]: the ThS net change is 353.

Staying with this experiment, now noted: p-tau aggregation modulator screen of the compound library, ThS fluorescence net change.
Take `COc1cc2c(cc1OC)C(=O)C(CC1CCN(Cc3ccccc3)CC1)C2` (stereo not shown) [Donepezil hydrochloride]: the ThS net change is 435.

Regarding `CCN[C@H]1C[C@H](C)S(=O)(=O)c2sc(S(N)(=O)=O)cc21` [Dorzolamide hydrochloride], the ThS net change was determined as 463.

On to `CCN1CC(CCN2CCOCC2)C(c2ccccc2)(c2ccccc2)C1=O.Cl` (stereo not shown) [Doxapram hydrochloride], for which the ThS net change worked out at 418.

Turning to `Cn1c(=O)c2c(ncn2CC2OCCO2)n(C)c1=O` [Doxofylline], the ThS net change amounted to 451.

For `O=C1Nc2ccc(Cl)cc2[C@@](C#CC2CC2)(C(F)(F)F)O1` [Efavirenz], the ThS net change is 436.

As for `CCOC(=O)[C@H](CCc1ccccc1)N[C@@H](C)C(=O)N1CCC[C@H]1C(=O)O` [Enalapril maleate], the ThS net change stood at 2088.

`C=CCOC(Cn1ccnc1)c1ccc(Cl)cc1Cl` (stereo not shown) [Enilconazole] gave a ThS net change of 461.

For `CCCCC(=O)O[C@H]1CC[C@H]2[C@@H]3CCc4cc(O)ccc4[C@H]3CC[C@]12C` [Estradiol Valerate], the ThS net change amounted to 417.

Regarding `C[C@]12CC[C@@H]3c4ccc(O)cc4CC[C@H]3[C@@H]1C[C@@H](O)[C@@H]2O` [Estriol], the ThS net change is reported as 440.

`O=C(Cn1ccnc1[N+](=O)[O-])NCCO` [Etanidazole]: the ThS net change worked out at 461.

Turning to `O=S(=O)(O)c1cc(O)ccc1O` [Ethamsylate], the ThS net change was 455.

The compound `CCOc1ccc(Cc2nccc3cc(OCC)c(OCC)cc23)cc1OCC` [Ethaverine hydrochloride] showed a ThS net change of 439.

Compound `C#C[C@]1(O)CC[C@H]2[C@@H]3CCc4cc(O)ccc4[C@H]3CC[C@@]21C` [Ethinylestradiol] had a ThS net change of 451.

Regarding `CCC1(C)CC(=O)NC1=O` (stereo not shown) [Ethosuximide], the ThS net change is listed as 433.

In turn, `CCOc1ccc2c(c1)C(C)=CC(C)(C)N2` [Ethoxyquin] came in with a ThS net change of 460.

In turn, `CCOc1ccc2nc(S(N)(=O)=O)sc2c1` [Ethoxzolamide] yielded a ThS net change of 428.

`CCc1cccc(CC)c1NC(=O)CN(CC(=O)O)CC(=O)O` [Etifenin]: the ThS net change was 414.

`CCc1cccc2c3c([nH]c12)C(CC)(CC(=O)O)OCC3` (stereo not shown) [Etodolac] came in with a ThS net change of 443.

In turn, `O=C(OCCOCCO)c1ccccc1Nc1cccc(C(F)(F)F)c1` [Etofenamate] registered a ThS net change of 425.

`Cn1c(=O)c2c(ncn2CCO)n(C)c1=O` [Etofylline] displayed a ThS net change of 422.

These data come from paper PMC7539012, “Hyperphosphorylated tau aggregation and cytotoxicity modulators screen identified prescription drugs linked to Alzheimer's disease and cognitive functions” (Scientific Reports, 2020).
